Experimental data published in patent publication EP1095657A2, “Compositions for the regulation of cytokine activity” (priority 1992, dated 1994).
Like-named read-outs stand apart in the source and are kept apart here.

What was measured:
[1] = test system: C57BL/6 skin grafts on BALB/c mice; test: Skin allograft rejection in mice; assay type: in vivo
Experimental: The effect of H-9392 was also tested in skin graft rejection experiments in mice. In particular, skin grafts from C57BL/6 donor mice (H-2^b) were applied to recipient BALB/c mice (H-2^d) according to the method of Baharav, E. et al. J. Immunol. Methods (1986) 90:143-144. The number of days to rejection was measured by the sloughing of the graft. The number of days to rejection was determined for a control group (injected with saline only, 0.1 ml), and test groups that received 3 ng or 300 ng of H-9392 by subcutaneous injection one day before grafting and weekly thereafter. The results, which are graphically represented in FIGS. 40 and 40A, reveal that the 3 ng/mouse dose delayed the level of skin graft rejection at 50% by 5 days!

[2] = test system: IDDM of NOD mice; test: Insulin dependent diabetes mellitus (IDDM) of NOD mice; assay type: in vivo
[3] = test system: ELAM-1; test: TNF-α-induced expression of adhesion molecules by endothelial cells (ELISA); details: for Recombinant human TNFα-induced adhesion molecules (O.D 492): 1 h pretreatment of EC, TNFα alone 1.2±0.1
[4] = test system: experimental DTH reaction in mice; test: In vivo bioassay of inhibition of experimental DTH reactivity (oxazolone ear swelling); parameters: species or system mice (BALB/c or CD1); details: CD1 mice, s.c.
Experimental: Groups of inbred BALB/c (Jackson Laboratories, Bar Harbor, ME) or of outbred CD1 (Weizmann Institute Animal Breeding Center, Rehovot, Israel) mice are sensitized on the shaved abdominal skin with 100 µl of 2% oxazolone (OX) in acetone/olive oil (4/1, v/v) applied topically. DTH sensitivity is elicited 5 days later as follows: mice are challenged with 20 µl of 0.5% OX (10 µl administered topically to each side of the ear) in acetone/olive oil. A constant area of the ear is measured immediately before challenge and 24 and 48 h later with a Mitutoyo engineer's micrometer. The individual measuring ear swelling is blinded to the identity of the groups of mice. The increment (△) of ear swelling is expressed as the mean in units of 10^-2 mm or 10^-4 inch (+SE) depending on the micrometer that is used. Percent inhibition is calculated as follows: %Inhibition= 1-((Treated-negative control)/(positive control-negative control)) [formula]
Mice are treated with LMWH as in Example 5.1, injected the day before primary sensitization to OX. On the fifth day after sensitization to OX, the mice are challenged to induce a DTH reaction, as described above.
The positive control is the DTH reaction elicited in immunized mice in the absence of treatment with LMWH. The negative control is the background swelling produced by the antigen in naive (non-immunized) mice.
BALB/c mice (at least 5 mice per group) were sensitized on the shaved abdomen with 3% 4-ethoxymethylene-2-phenyl oxazolone (OX; BDH Chemicals, GB) in acetone/olive oil applied topically. DTH sensitivity was elicited 5 days later as follows. Mice were challenged with 0.5% OX in acetone/olive oil. The ear was measured immediately before challenge and 24 h later with Mitutoyo engineer's micrometer (Japan). The individual measuring the swelling of the ear was blinded to the identity of the groups of mice. To interfere with DTH response, the low molecular weight immuno-regulatory fractions, diluted in PBS, were administrated subcutaneously into the back of the treated mice at the indicated time schedules and concentrations. Treated mice were inspected during and after (>2 months) the treatment and no major side-effects were observed clinically.
In particular, CD1 mice (available from the Weizmann Institute Animal Breeding Center, Rehovot, Israel), 4-12 mice per group, were treated as described in Section 5.2 or 6.8.

[5] = test system: LPS-induced uveitis; details: for Median Protein: LPS with saline 18.4, no LPS 0.36
[6] = test system: ICAM-1; test: TNF-α-induced expression of adhesion molecules by endothelial cells (ELISA); details: 1 h pretreatment of EC, TNFα alone 2.2±0.2
[7] = test system: mortality after gamma irradiation; test: Radioprotective effect in gamma-irradiated mice; assay type: in vivo, BALB/c mice
Experimental: Groups of female BALB/c mice, 8 weeks old, 5-10 mice per group, were injected subcutaneously with either saline (0.1 ml, control), H-9392 (30 ng/mouse), or glucosamine (10,000 ng/mouse) 1 day before irradiation, and weekly thereafter until termination of the experiment on day 30. All the mice were irradiated to a dose of 700 rads using a ^60Co gamma radiation source.
In a separate experiment, groups of BALB/c mice (5 mice to a group) were likewise exposed to 750 rads of gamma-rays, except that these groups of mice were treated with test substances (saline at 0.1 ml per mouse; H-9392 at 0.3, 3, 30 and 300 ng/mouse; and glucosamine at 1, 10 and 100 µg/mouse) on the day before irradiation, on the sixth day after irradiation, and once again on the thirteenth day after irradiation only. All treatment ceased after the third and last administration.

[8] = test system: adjuvant arthritis in Lewis rats; test: Adjuvant arthritis (AA) in rats; assay type: in vivo

Question: `O=C(O)C1=C[C@H](O)[C@@H](OS(=O)(=O)O)[C@H](O[C@H]2[C@H](O)[C@@H](NS(=O)(=O)O)C(O)O[C@@H]2CO)O1` (stereo partly drawn) [H-9392, 2-O-sulfate-4-deoxy-4-en-iduronic acid-(α-1,4)-2-deoxy-2-N-sulfateglucosamine] was tested. Which “delay of the level of skin graft rejection at 50%” value ([1]; 3 ng/mouse s.c. one day before grafting and weekly thereafter) did it give?
Answer: The value was 5 days.

Question: What about the “difference at 50% rejection relative to control, in words” value ([1]; 300 ng/mouse s.c. one day before grafting and weekly thereafter) of the same compound?
Answer: Its value is “failed to produce a significant difference”.

Question: What about the “mice that had become diabetic” value ([2]; at 4.5 months, H-9392 30 ng/mouse, glucosamine 10,000 ng/mouse s.c., all control mice diabetic) of the same compound?
Answer: Its value is “less than 50%”.

Question: And the “mice that had died, in words” value ([2]; by age 5 months, H-9392 30 ng, glucosamine 10,000 ng, all control mice had died)?
Answer: Its value is “none”.

Question: And the “Recombinant human TNFα-induced adhesion molecules (O.D 492)” value ([3]; 50 pg/ml, no TNFα 0.12±0.01)?
Answer: The value was 0.6±0.1 O.D 492.

Question: What about the “Recombinant human TNFα-induced adhesion molecules (O.D 492)” value ([3]; 100 pg/ml) of the same compound?
Answer: The value was 0.9±0.07 O.D 492.

Question: And the “inhibition of the up regulation of EC expression of adhesion molecules induced by TNF-α” value ([3]; ELAM-1 and ICAM-1 not told apart in the sentence)?
Answer: Its value is “up to 50%”.

Question: And the Inhmax [4]?
Answer: The Inhmax was 78%.

Question: And the DTH ([4]; at that dose, value in parentheses in the cell taken as positive control, not reported)?
Answer: Its DTH is 4.2 ± 0.7 (17.8 ± 0.9) 10^-2 mm.

Question: And the dose window ([4]; broadest of the compounds tested)?
Answer: Its dose window is 0.000132-0.004 µg/gm.

Question: And the “"R" value” ([4]; inhibitory, 0 = no effect)?
Answer: Its value is 6.5 x 10^4 % x (μg/gm)^-1.

Question: What about the “Median Protein” value ([5]; 32 ng/rat at Day 1) of the same compound?
Answer: Its value is 5.2 mg/mL.

Question: What about the “Median Protein” value ([5]; 500 ng/rat at Day 1) of the same compound?
Answer: Its value is 4.8 mg/mL.

Question: And the “suppression of the inflammation relative to control” value ([5]; single administration, at either dosage)?
Answer: The value was “over 70%”.

Question: And the “Recombinant human TNFα-induced adhesion molecules (O.D 492)” value ([6]; 50 pg/ml, no TNFα 0.18±0.01)?
Answer: Its value is 1.0±0.04 O.D 492.

Question: And the “Recombinant human TNFα-induced adhesion molecules (O.D 492)” value ([6]; 100 pg/ml)?
Answer: The value was 1.4±0.03 O.D 492.

Question: And the mortality rate ([7]; 700 rads, by day 30, s.c. 1 day before irradiation and weekly, H-9392 30 ng/mouse, glucosamine 10,000 ng/mouse, saline 100%)?
Answer: The mortality rate was 40%.

Question: And the “mice that had died by the thirtieth day after irradiation” value ([7]; 750 rads, 30 ng/mouse, three administrations, 5 mice to a group)?
Answer: Its value is “only one mouse”.

Question: And the “activity in suppressing mortality after irradiation, in words” value ([7]; 750 rads, three administrations, 300 ng H-9392, 1 µg glucosamine)?
Answer: Its value is “moderate activity in suppressing mortality”.

Question: And the “suppression of the inflammation of AA” value ([8]; 120 ng/rat or 0.6 ng/gm rat s.c. weekly from 1 day before induction, 24 days after induction)?
Answer: Its value is “up to 90%”.

Question: And the “effect on AA, in words” value ([8]; weekly or daily, beginning at day 0 or at day 12)?
Answer: The value was “positive suppression of the severity of AA in all cases”.

Question: And the “effect on AA at 30 days post-induction, in words” value ([8]; weekly s.c. from day 12 to day 26, 120 ng disaccharide or 100 µg dexamethasone phosphate per rat)?
Answer: Its value is “almost complete suppression”.
